Assays:
Format in all cases: in vivo
mouse elevated plus maze = assay: Anxiolytic-like action, mouse elevated plus maze; conditions: Example 13 at 10 mg/kg or more oral; diazepam 3 mg/kg oral
Description: In Parkinson's disease, psychiatric symptom (e.g. depression, anxiety) is known as one of its non-motor symptoms. The anxiolytic-like action of the present invention was evaluated with mouse elevated plus maze. The present test is broadly used as a method for evaluating the anxiolytic-like action of agents.
In the present test, male Crl: CD1 (ICR) mice (CHARLES RIVER LABORATORIES JAPAN, INC.) were used. One hour before the test was started, the solvent, the compound of Example 13 (3 mg/kg, 10 mg/kg, 30 mg/kg, or 100 mg/kg), or diazepam (3 mg/kg) which is a positive control was orally administered to the mouse. The mouse was put into a center platform in which the illuminance was adjusted to 80-100 Lux level. The head of the mouse was set toward the closed arm, and then the test was started. The mouse was allowed to explore freely for 5 minutes. When ⅓ of the mouse's body entered the arm, the behavior was counted as arm entry. And, the time spent in the open arm was also measured with a stopwatch. The ratio of the count of the open arm entry per the count of the all arm entry, and the ratio of the time spent in the open arm per the total exploration time (5 minutes) were calculated. […] Thus, the ratio of the count of the open arm entry per the count of the all arm entry, and the ratio of the time spent in the open arm per the total exploration time tend to be small values. When these ratios in the drug administration group are higher than those of the solvent administration group, it can be judged that the drug has anxiolytic-like action.

[1] = test system: rat sleep electroencephalogram; assay: Effect for sleeping stage/waking stage, rat sleep electroencephalogram; conditions: 30 or 100 mg/kg oral, 6 hours
Description: As non-motor symptoms in Parkinson's disease, sleep disorder such as insomnia (e.g. difficulty falling asleep, nocturnal awakening, etc.) is known. It is important to improve sleeping quality. The effect of the present compounds for sleep was evaluated by measuring rat sleep electroencephalogram.
In the present test, male Crlj: WI rats (CHARLES RIVER LABORATORIES JAPAN, INC.) were used. Under anesthesia, a radiofrequency transmitter (HD-S02, Data Science International, Inc.) was set in the peritoneal cavity of the rat, and two electrodes for measuring electroencephalogram were stereotaxically placed in the skull (frontoparietal electrode: 2 mm ahead of bregma and 2 mm left from midline, parietal electrode: 5 mm behind bregma and 2 mm right from midline). An electrode for recording electromyogram was placed in the dorsal neck muscle. After more than one week as postoperative recuperation period, the rats were used in the sleep electroencephalogram measurement.
The compound of Example 13 (30 mg/kg or 100 mg/kg) was orally administered to the rat just before light phase, and the electroencephalogram and electromyogram of the rat were recorded at 500 Hz for 6 hours in a breeding cage in a soundproof box. The recorded signals were classified to 3 stages, wake/REM sleep/non-REM sleep every 10 seconds with a sleep analysis program Sleepsign (version 3, Kissei Comtec Co., Ltd.), and aggregated. Specifically, when the myoelectric response was beyond the threshold defined for each individual animal, it was classified as wake, and otherwise it was classified as sleep. In the sleep, when the power value at delta wave (0.5-4 Hz) of EEG-frequency component was beyond the threshold defined for each individual beforehand, it was classified as non-REM sleep. When the power value at theta wave (4-8 Hz) was beyond 40% of the total power value at 0.5-80 Hz, it was classified as REM sleep.

[2] = test system: reserpine-induced Parkinson's disease model mouse; assay: Potentiating effect of levodopa-induced hyperactivity in reserpine-induced Parkinson's disease model mouse; conditions: Examples 12.5 or 25 mg/kg oral; rasagiline 3 or 10 mg/kg; with levodopa 200 mg/kg i.p.
Description: Dopamine-depleted mice due to reserpine treatment are model mice of akinesia symptoms in Parkinson's disease, said symptoms are relieved with levodopa (L-DOPA). The effect of the present compounds for potentiating the levodopa's effect was tested.
In the present test, male Crl: CD1 (ICR) mice (CHARLES RIVER LABORATORIES JAPAN, INC.) were used. 20-24 hours before starting the movement measurement, reserpine (3 mg/kg) was intraperitoneally administered to the mouse. One hour before starting the movement measurement, the present compound (12-.5 mg/kg or 25 mg/kg of. Examples 1, 2, 3, 4, and 5) was orally administered to the mouse. Shortly before starting the movement measurement, levodopa (200 mg/kg) with benserazide whose amount was ¼ of levodopa in free form was intraperitoneally administered to the mouse. The movement measurement was carried out for 90 minutes, and each total movement was compared.

## C[C@H](c1noc2ccccc12)S(N)(=O)=O [Example 13, (1R)-1-(1,2-benzoxazol-3-yl)ethane-1-sulfonamide]
Mouse elevated plus maze
  count of the open arm entry: increase significantly
  time spent in the open arm: increase significantly
[1]
  REM sleep latency: tended to elongate
  REM sleep time: significantly shortened
  non-REM sleep latency: significantly shortened
  non-REM sleep time: increased
  waking time: significantly shortened

## CC(c1noc2ccccc12)S(N)(=O)=O (centres unmarked) [Example 1, 1-(Benzo[d]isoxazol-3-yl)ethane-1-sulfonamide]
[2]
  levodopa-induced hyperactivity (total movement, 90 minutes): significantly-potentiating effect of levodopa-induced hyperactivity
